Test results from ChEMBL document CHEMBL1201862, “PubChem BioAssay data set” (2004).
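Dose response: 5 concentrations. Exposure: 48 h. Format: 96-well plates. Endpoint: linear interpolation; highest concentration if not reached. GI50 = concentration required for 50% inhibition of growth.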 Calls of active or inactive are those of the source. Rule as the data show it: active = GI50 up to about 1.1 µM and inactive = higher.

Legend:
Assay in all cases: NCI tumour cell line growth inhibition, 48 h
[1] = tested on: EKVX
[2] = tested on: BT-549
[3] = tested on: MOLT-4
[4] = tested on: SW-620
[5] = tested on: PC-3
[6] = tested on: HOP-62
[7] = tested on: NCI-H226
[8] = tested on: COLO 205
[9] = tested on: HT-29
[10] = tested on: SNB-75
[11] = tested on: NCI-H522
[12] = tested on: SF-539
[13] = tested on: UACC-62
[14] = tested on: ACHN
[15] = tested on: U-251
[16] = tested on: CAKI-1
[17] = tested on: DU-145
[18] = tested on: NCI-H460
[19] = tested on: Hs-578T
[20] = tested on: OVCAR-8
[21] = tested on: LOX IMVI
[22] = tested on: IGROV-1
[23] = tested on: SK-OV-3
[24] = tested on: HCC 2998
[25] = tested on: SF-295
[26] = tested on: HCT-116
[27] = tested on: Malme-3M
[28] = tested on: HL-60
[29] = tested on: NCI/ADR-RES
[30] = tested on: K562
[31] = tested on: MDA-MB-435
[32] = tested on: SNB-19
[33] = tested on: A549
[34] = tested on: NCI-H23
[35] = tested on: MCF7
[36] = tested on: UACC-257
[37] = tested on: RXF 393
[38] = tested on: SN12C
[39] = tested on: OVCAR-4
[40] = tested on: MDA-MB-231
[41] = tested on: OVCAR-5
[42] = tested on: CCRF-CEM
[43] = tested on: SK-MEL-28
[44] = tested on: HCT-15
[45] = tested on: SK-MEL-2
[46] = tested on: MDA-N
[47] = tested on: RPMI-8226
[48] = tested on: UO-31
[49] = tested on: SR
[50] = tested on: OVCAR-3
[51] = tested on: T47D
[52] = tested on: SK-MEL-5
[53] = tested on: TK-10
[54] = tested on: SF-268
[55] = tested on: A498
[56] = tested on: M14
[57] = tested on: 786-0
[58] = tested on: KM12
[59] = tested on: HOP-92
[60] = tested on: DLD-1
[61] = tested on: KM-20L2
[62] = tested on: DMS-114
[63] = tested on: DMS-273
[64] = tested on: LXFL 529
[65] = tested on: HOP-18
[66] = tested on: M19-MEL
[67] = tested on: SNB-78

O=C(O)CP(=O)(O)O
GI50 [1]: > 100 µM (inactive) | GI50 [2]: > 100 µM (inactive) | GI50 [3]: > 100 µM (inactive) | GI50 [4]: > 100 µM (inactive) | GI50 [5]: > 100 µM (inactive) | GI50 [6]: > 100 µM (inactive) | GI50 [7]: > 100 µM (inactive) | GI50 [8]: > 100 µM (inactive) | GI50 [9]: > 100 µM (inactive) | GI50 [10]: > 100 µM (inactive) | GI50 [11]: > 100 µM (inactive) | GI50 [12]: > 100 µM (inactive) | GI50 [13]: > 100 µM (inactive) | GI50 [14]: > 100 µM (inactive) | GI50 [15]: > 100 µM (inactive) | GI50 [16]: > 100 µM (inactive) | GI50 [17]: > 100 µM (inactive) | GI50 [18]: > 100 µM (inactive) | GI50 [19]: > 100 µM (inactive) | GI50 [20]: > 100 µM (inactive) | GI50 [21]: > 100 µM (inactive) | GI50 [22]: > 100 µM (inactive) | GI50 [23]: > 100 µM (inactive) | GI50 [24]: > 100 µM (inactive) | GI50 [25]: > 100 µM (inactive) | GI50 [26]: > 100 µM (inactive) | GI50 [27]: > 100 µM (inactive) | GI50 [28]: > 100 µM (inactive) | GI50 [29]: > 100 µM (inactive) | GI50 [30]: > 100 µM (inactive) | GI50 [31]: > 100 µM (inactive) | GI50 [32]: > 100 µM (inactive) | GI50 [33]: > 100 µM (inactive) | GI50 [34]: > 100 µM (inactive) | GI50 [35]: > 100 µM (inactive) | GI50 [36]: > 100 µM (inactive) | GI50 [37]: > 100 µM (inactive) | GI50 [38]: > 100 µM (inactive) | GI50 [39]: > 100 µM (inactive) | GI50 [40]: > 100 µM (inactive) | GI50 [41]: > 100 µM (inactive) | GI50 [42]: > 100 µM (inactive) | GI50 [43]: > 100 µM (inactive) | GI50 [44]: > 100 µM | GI50 [45]: > 100 µM (inactive) | GI50 [46]: > 100 µM (inactive) | GI50 [47]: > 100 µM (inactive) | GI50 [48]: > 100 µM (inactive) | GI50 [49]: > 100 µM (inactive) | GI50 [50]: > 100 µM (inactive) | GI50 [51]: > 100 µM (inactive) | GI50 [52]: > 100 µM (inactive) | GI50 [53]: > 100 µM (inactive) | GI50 [54]: > 100 µM (inactive) | GI50 [55]: > 100 µM (inactive) | GI50 [56]: > 100 µM (inactive) | GI50 [57]: > 100 µM (inactive) | GI50 [58]: > 100 µM (inactive) | GI50 [59]: > 100 µM (inactive)

Cc1ccc(O)c(/N=N/c2ccc(S(=O)(=O)O)cc2)n1
GI50 [1]: 21 µM (inactive) | GI50 [3]: > 100 µM (inactive) | GI50 [4]: > 100 µM (inactive) | GI50 [60]: > 100 µM (inactive) | GI50 [8]: > 100 µM (inactive) | GI50 [11]: > 100 µM (inactive) | GI50 [12]: > 100 µM (inactive) | GI50 [13]: > 100 µM (inactive) | GI50 [14]: > 100 µM (inactive) | GI50 [61]: > 100 µM (inactive) | GI50 [15]: > 100 µM (inactive) | GI50 [16]: > 100 µM (inactive) | GI50 [18]: > 100 µM (inactive) | GI50 [20]: > 100 µM (inactive) | GI50 [21]: > 100 µM (inactive) | GI50 [22]: > 100 µM (inactive) | GI50 [23]: > 100 µM (inactive) | GI50 [62]: > 100 µM (inactive) | GI50 [25]: > 100 µM (inactive) | GI50 [63]: > 100 µM (inactive) | GI50 [64]: > 100 µM (inactive) | GI50 [26]: > 100 µM (inactive) | GI50 [28]: > 100 µM (inactive) | GI50 [30]: > 100 µM (inactive) | GI50 [33]: > 100 µM (inactive) | GI50 [34]: > 100 µM (inactive) | GI50 [37]: > 100 µM (inactive) | GI50 [38]: > 100 µM (inactive) | GI50 [65]: > 100 µM (inactive) | GI50 [42]: > 100 µM (inactive) | GI50 [43]: > 100 µM (inactive) | GI50 [44]: > 100 µM | GI50 [47]: > 100 µM (inactive) | GI50 [48]: > 100 µM (inactive) | GI50 [66]: > 100 µM (inactive) | GI50 [52]: > 100 µM (inactive) | GI50 [53]: > 100 µM (inactive) | GI50 [54]: > 100 µM (inactive) | GI50 [55]: > 100 µM (inactive) | GI50 [56]: > 100 µM (inactive) | GI50 [57]: > 100 µM (inactive) | GI50 [59]: > 100 µM (inactive)

OC1CC(O)O[C@H](c2ccccc2)C1 (stereo partly drawn)
GI50 [1]: > 100 µM (inactive) | GI50 [3]: > 100 µM (inactive) | GI50 [4]: > 100 µM (inactive) | GI50 [60]: > 100 µM (inactive) | GI50 [6]: > 100 µM (inactive) | GI50 [7]: > 100 µM (inactive) | GI50 [8]: > 100 µM (inactive) | GI50 [9]: > 100 µM (inactive) | GI50 [10]: > 100 µM (inactive) | GI50 [12]: > 100 µM (inactive) | GI50 [13]: > 100 µM (inactive) | GI50 [14]: > 100 µM (inactive) | GI50 [61]: > 100 µM (inactive) | GI50 [16]: > 100 µM (inactive) | GI50 [18]: > 100 µM (inactive) | GI50 [20]: 85.3 µM (inactive) | GI50 [21]: > 100 µM (inactive) | GI50 [22]: > 100 µM (inactive) | GI50 [24]: > 100 µM (inactive) | GI50 [25]: > 100 µM (inactive) | GI50 [63]: > 100 µM (inactive) | GI50 [64]: > 100 µM (inactive) | GI50 [26]: > 100 µM (inactive) | GI50 [27]: > 100 µM (inactive) | GI50 [28]: > 100 µM (inactive) | GI50 [30]: > 100 µM (inactive) | GI50 [32]: > 100 µM (inactive) | GI50 [33]: > 100 µM (inactive) | GI50 [34]: > 100 µM (inactive) | GI50 [36]: > 100 µM (inactive) | GI50 [37]: > 100 µM (inactive) | GI50 [38]: > 100 µM (inactive) | GI50 [39]: > 100 µM (inactive) | GI50 [65]: > 100 µM (inactive) | GI50 [41]: > 100 µM (inactive) | GI50 [42]: > 100 µM (inactive) | GI50 [67]: > 100 µM (inactive) | GI50 [43]: > 100 µM (inactive) | GI50 [44]: > 100 µM | GI50 [47]: > 100 µM (inactive) | GI50 [48]: > 100 µM (inactive) | GI50 [49]: > 100 µM (inactive) | GI50 [50]: > 100 µM (inactive) | GI50 [66]: > 100 µM (inactive) | GI50 [52]: > 100 µM (inactive) | GI50 [53]: > 100 µM (inactive) | GI50 [54]: > 100 µM (inactive) | GI50 [55]: > 100 µM (inactive) | GI50 [56]: > 100 µM (inactive) | GI50 [57]: > 100 µM (inactive) | GI50 [58]: > 100 µM (inactive) | GI50 [59]: > 100 µM (inactive)
